Reference: paper PMC9571063 (Molecules, 2022)
Like-named read-outs stand apart in the source and are kept apart here.

Columns and labels:
ACVRL1 = target: T1, ACVRL1 (Homo sapiens, UniProt P37023); test: KINOMEscan; assay type: binding; settings: read-out: Percent Control
T1 construct: purchased Eurofins DiscoverX KINOMEscan (scanMAX 468)

ALK(C1156Y) = target: T2, ALK(C1156Y) (Homo sapiens, UniProt Q9UM73, C1156Y); test: KINOMEscan; assay type: binding; settings: read-out: Percent Control
T2 construct: purchased Eurofins DiscoverX KINOMEscan (scanMAX 468)

BMPR1B = target: T3, BMPR1B (Homo sapiens, UniProt O00238); test: KINOMEscan; assay type: binding; settings: read-out: Percent Control
T3 construct: purchased Eurofins DiscoverX KINOMEscan (scanMAX 468)

CTK = target: T4, CTK (Homo sapiens, UniProt P42679); test: KINOMEscan; assay type: binding; settings: read-out: Percent Control
T4 construct: purchased Eurofins DiscoverX KINOMEscan (scanMAX 468)

DLK = target: T5, DLK (Homo sapiens, UniProt Q12852); test: KINOMEscan; assay type: binding; settings: read-out: Percent Control
T5 construct: purchased Eurofins DiscoverX KINOMEscan (scanMAX 468)
T5 sequence (Q12852 whole entry): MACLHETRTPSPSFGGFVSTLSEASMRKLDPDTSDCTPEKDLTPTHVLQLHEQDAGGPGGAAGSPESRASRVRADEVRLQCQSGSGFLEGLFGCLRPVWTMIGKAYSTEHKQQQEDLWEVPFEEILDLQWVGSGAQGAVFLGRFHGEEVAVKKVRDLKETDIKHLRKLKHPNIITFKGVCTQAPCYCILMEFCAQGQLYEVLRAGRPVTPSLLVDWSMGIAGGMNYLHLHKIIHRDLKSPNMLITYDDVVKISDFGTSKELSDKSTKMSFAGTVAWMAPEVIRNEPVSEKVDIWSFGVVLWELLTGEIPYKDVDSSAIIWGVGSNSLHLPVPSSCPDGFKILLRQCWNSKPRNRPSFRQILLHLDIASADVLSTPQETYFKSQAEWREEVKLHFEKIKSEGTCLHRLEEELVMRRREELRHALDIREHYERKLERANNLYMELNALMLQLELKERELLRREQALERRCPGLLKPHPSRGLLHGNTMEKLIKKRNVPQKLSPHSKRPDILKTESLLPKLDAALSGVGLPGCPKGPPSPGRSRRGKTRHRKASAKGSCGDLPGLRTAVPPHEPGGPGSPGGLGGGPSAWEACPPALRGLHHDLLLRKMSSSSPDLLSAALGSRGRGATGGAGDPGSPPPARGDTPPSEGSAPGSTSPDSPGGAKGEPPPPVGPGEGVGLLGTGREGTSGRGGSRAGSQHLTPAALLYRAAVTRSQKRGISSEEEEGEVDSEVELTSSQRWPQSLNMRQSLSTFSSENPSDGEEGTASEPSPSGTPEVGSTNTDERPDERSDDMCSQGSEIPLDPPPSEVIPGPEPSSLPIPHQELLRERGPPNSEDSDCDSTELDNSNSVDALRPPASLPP

EGFR(L858R,T790M) = target: T6, EGFR(L858R,T790M) (Homo sapiens, UniProt P00533, L858R/T790M); test: KINOMEscan; assay type: binding; settings: read-out: Percent Control
T6 construct: purchased Eurofins DiscoverX KINOMEscan (scanMAX 468)

EPHB3 = target: T7, EPHB3 (Homo sapiens, UniProt P54753); test: KINOMEscan; assay type: binding; settings: read-out: Percent Control
T7 construct: purchased Eurofins DiscoverX KINOMEscan (scanMAX 468)

FLT4 = target: T8, FLT4 (Homo sapiens, UniProt P35916); test: KINOMEscan; assay type: binding; settings: read-out: Percent Control
T8 construct: purchased Eurofins DiscoverX KINOMEscan (scanMAX 468)

HIPK2 = target: T9, HIPK2 (Homo sapiens, UniProt Q9H2X6); test: KINOMEscan; assay type: binding; settings: read-out: Percent Control
T9 construct: purchased Eurofins DiscoverX KINOMEscan (scanMAX 468)

ICK = target: T10, ICK (Homo sapiens, UniProt Q9UPZ9); test: KINOMEscan; assay type: binding; settings: read-out: Percent Control
T10 construct: purchased Eurofins DiscoverX KINOMEscan (scanMAX 468)

LZK = target: T11, LZK (Homo sapiens, UniProt O43283); test: KINOMEscan; assay type: binding; settings: read-out: Percent Control
T11 construct: purchased Eurofins DiscoverX KINOMEscan (scanMAX 468)

MAP3K1 = target: T12, MAP3K1 (Homo sapiens, UniProt Q13233); test: KINOMEscan; assay type: binding; settings: read-out: Percent Control
T12 construct: purchased Eurofins DiscoverX KINOMEscan (scanMAX 468)

MAP3K15 = target: T13, MAP3K15 (Homo sapiens, UniProt Q6ZN16); test: KINOMEscan; assay type: binding; settings: read-out: Percent Control
T13 construct: purchased Eurofins DiscoverX KINOMEscan (scanMAX 468)

MEK3 = target: T14, MEK3 (Homo sapiens, UniProt P46734); test: KINOMEscan; assay type: binding; settings: read-out: Percent Control
T14 construct: purchased Eurofins DiscoverX KINOMEscan (scanMAX 468)

MET(M1250T) = target: T15, MET(M1250T) (Homo sapiens, UniProt P08581, M1250T); test: KINOMEscan; assay type: binding; settings: read-out: Percent Control
T15 construct: purchased Eurofins DiscoverX KINOMEscan (scanMAX 468)

MLCK = target: T16, MLCK (Homo sapiens, UniProt Q32MK0); test: KINOMEscan; assay type: binding; settings: read-out: Percent Control
T16 construct: purchased Eurofins DiscoverX KINOMEscan (scanMAX 468)

MST3 = target: T17, MST3 (Homo sapiens, UniProt Q9Y6E0); test: KINOMEscan; assay type: binding; settings: read-out: Percent Control
T17 construct: purchased Eurofins DiscoverX KINOMEscan (scanMAX 468)

MYO3B = target: T18, MYO3B (Homo sapiens, UniProt Q8WXR4); test: KINOMEscan; assay type: binding; settings: read-out: Percent Control
T18 construct: purchased Eurofins DiscoverX KINOMEscan (scanMAX 468)

NEK1 = target: T19, NEK1 (Homo sapiens, UniProt Q96PY6); test: KINOMEscan; assay type: binding; settings: read-out: Percent Control
T19 construct: purchased Eurofins DiscoverX KINOMEscan (scanMAX 468)

NEK10 = target: T20, NEK10 (Homo sapiens, UniProt Q6ZWH5); test: KINOMEscan; assay type: binding; settings: read-out: Percent Control
T20 construct: purchased Eurofins DiscoverX KINOMEscan (scanMAX 468)
T20 sequence (Q6ZWH5 whole entry): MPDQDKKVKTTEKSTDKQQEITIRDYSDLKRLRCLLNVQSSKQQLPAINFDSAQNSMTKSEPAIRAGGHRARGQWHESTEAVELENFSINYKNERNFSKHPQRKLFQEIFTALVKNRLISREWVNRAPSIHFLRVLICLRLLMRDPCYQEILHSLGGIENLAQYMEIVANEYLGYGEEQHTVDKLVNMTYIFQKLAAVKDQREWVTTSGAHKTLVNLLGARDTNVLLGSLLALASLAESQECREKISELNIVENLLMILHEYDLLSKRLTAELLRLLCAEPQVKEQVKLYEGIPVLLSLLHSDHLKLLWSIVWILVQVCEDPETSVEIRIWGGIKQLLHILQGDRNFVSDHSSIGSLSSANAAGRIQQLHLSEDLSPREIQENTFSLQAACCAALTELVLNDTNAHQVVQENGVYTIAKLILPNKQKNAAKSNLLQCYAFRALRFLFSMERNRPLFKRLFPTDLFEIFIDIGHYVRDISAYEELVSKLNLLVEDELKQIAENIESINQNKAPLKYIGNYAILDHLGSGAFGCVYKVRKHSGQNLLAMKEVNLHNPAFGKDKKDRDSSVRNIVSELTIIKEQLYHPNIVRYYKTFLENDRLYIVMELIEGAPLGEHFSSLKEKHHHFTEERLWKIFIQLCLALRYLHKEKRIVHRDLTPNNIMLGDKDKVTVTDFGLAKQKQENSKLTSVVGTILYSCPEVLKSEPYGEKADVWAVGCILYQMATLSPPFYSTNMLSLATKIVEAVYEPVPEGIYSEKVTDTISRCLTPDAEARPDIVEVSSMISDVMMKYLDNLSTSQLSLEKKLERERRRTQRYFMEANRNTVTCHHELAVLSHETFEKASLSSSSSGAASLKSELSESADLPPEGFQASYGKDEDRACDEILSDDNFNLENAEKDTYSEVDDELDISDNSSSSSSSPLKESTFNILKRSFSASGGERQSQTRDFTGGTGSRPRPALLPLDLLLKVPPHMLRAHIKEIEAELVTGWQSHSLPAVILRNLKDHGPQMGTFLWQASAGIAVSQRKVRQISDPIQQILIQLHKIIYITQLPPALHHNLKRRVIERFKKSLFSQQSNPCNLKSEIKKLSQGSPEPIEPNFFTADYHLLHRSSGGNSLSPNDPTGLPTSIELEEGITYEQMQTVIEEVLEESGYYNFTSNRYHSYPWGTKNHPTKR

NEK3 = target: T21, NEK3 (Homo sapiens, UniProt P51956); test: KINOMEscan; assay type: binding; settings: read-out: Percent Control
T21 construct: purchased Eurofins DiscoverX KINOMEscan (scanMAX 468)

PIK3CA(E542K) = target: T22, PIK3CA(E542K) (Homo sapiens, UniProt P42336, E542K); test: KINOMEscan; assay type: binding; settings: read-out: Percent Control
T22 construct: purchased Eurofins DiscoverX KINOMEscan (scanMAX 468)

PIM1 = target: T23, PIM1 (Homo sapiens, UniProt P11309); test: KINOMEscan; assay type: binding; settings: read-out: Percent Control
T23 construct: purchased Eurofins DiscoverX KINOMEscan (scanMAX 468)

PLK3 = target: T24, PLK3 (Homo sapiens, UniProt Q9H4B4); test: KINOMEscan; assay type: binding; settings: read-out: Percent Control
T24 construct: purchased Eurofins DiscoverX KINOMEscan (scanMAX 468)
T24 sequence (Q9H4B4 whole entry): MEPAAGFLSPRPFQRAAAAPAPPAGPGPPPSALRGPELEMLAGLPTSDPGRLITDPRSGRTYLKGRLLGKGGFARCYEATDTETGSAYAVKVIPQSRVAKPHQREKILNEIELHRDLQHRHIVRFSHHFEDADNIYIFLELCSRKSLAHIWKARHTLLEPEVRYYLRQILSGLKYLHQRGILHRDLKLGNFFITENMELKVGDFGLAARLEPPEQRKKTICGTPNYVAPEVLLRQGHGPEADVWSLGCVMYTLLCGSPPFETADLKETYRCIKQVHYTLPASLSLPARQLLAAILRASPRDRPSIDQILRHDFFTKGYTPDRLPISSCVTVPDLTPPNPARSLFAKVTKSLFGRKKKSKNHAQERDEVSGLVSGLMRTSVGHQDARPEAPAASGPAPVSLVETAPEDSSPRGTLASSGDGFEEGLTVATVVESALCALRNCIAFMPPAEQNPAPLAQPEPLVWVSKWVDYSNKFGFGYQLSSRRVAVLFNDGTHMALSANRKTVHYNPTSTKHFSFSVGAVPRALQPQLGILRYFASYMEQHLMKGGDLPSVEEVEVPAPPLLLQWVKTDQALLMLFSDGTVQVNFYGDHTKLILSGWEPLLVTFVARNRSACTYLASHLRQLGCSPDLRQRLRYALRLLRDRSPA

PRKX = target: T25, PRKX (Homo sapiens, UniProt P51817); test: KINOMEscan; assay type: binding; settings: read-out: Percent Control
T25 construct: purchased Eurofins DiscoverX KINOMEscan (scanMAX 468)
T25 sequence (P51817 whole entry): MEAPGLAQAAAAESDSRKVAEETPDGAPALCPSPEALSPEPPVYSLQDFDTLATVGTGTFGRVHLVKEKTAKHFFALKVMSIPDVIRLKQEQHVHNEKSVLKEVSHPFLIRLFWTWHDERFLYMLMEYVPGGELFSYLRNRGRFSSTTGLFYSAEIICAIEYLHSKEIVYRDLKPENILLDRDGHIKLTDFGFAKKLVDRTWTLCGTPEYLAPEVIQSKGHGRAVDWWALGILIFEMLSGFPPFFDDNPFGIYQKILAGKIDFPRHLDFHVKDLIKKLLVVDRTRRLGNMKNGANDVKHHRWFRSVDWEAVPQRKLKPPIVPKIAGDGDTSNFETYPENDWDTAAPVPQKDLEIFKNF

TGFBR2 = target: T26, TGFBR2 (Homo sapiens, UniProt P37173); test: KINOMEscan; assay type: binding; settings: read-out: Percent Control
T26 construct: purchased Eurofins DiscoverX KINOMEscan (scanMAX 468)

TXK = target: T27, TXK (Homo sapiens, UniProt P42681); test: KINOMEscan; assay type: binding; settings: read-out: Percent Control
T27 construct: purchased Eurofins DiscoverX KINOMEscan (scanMAX 468)

VEGFR2 = target: T28, VEGFR2 (Homo sapiens, UniProt P35968); test: KINOMEscan; assay type: binding; settings: read-out: Percent Control
T28 construct: purchased Eurofins DiscoverX KINOMEscan (scanMAX 468)
T28 sequence (P35968 20-1356): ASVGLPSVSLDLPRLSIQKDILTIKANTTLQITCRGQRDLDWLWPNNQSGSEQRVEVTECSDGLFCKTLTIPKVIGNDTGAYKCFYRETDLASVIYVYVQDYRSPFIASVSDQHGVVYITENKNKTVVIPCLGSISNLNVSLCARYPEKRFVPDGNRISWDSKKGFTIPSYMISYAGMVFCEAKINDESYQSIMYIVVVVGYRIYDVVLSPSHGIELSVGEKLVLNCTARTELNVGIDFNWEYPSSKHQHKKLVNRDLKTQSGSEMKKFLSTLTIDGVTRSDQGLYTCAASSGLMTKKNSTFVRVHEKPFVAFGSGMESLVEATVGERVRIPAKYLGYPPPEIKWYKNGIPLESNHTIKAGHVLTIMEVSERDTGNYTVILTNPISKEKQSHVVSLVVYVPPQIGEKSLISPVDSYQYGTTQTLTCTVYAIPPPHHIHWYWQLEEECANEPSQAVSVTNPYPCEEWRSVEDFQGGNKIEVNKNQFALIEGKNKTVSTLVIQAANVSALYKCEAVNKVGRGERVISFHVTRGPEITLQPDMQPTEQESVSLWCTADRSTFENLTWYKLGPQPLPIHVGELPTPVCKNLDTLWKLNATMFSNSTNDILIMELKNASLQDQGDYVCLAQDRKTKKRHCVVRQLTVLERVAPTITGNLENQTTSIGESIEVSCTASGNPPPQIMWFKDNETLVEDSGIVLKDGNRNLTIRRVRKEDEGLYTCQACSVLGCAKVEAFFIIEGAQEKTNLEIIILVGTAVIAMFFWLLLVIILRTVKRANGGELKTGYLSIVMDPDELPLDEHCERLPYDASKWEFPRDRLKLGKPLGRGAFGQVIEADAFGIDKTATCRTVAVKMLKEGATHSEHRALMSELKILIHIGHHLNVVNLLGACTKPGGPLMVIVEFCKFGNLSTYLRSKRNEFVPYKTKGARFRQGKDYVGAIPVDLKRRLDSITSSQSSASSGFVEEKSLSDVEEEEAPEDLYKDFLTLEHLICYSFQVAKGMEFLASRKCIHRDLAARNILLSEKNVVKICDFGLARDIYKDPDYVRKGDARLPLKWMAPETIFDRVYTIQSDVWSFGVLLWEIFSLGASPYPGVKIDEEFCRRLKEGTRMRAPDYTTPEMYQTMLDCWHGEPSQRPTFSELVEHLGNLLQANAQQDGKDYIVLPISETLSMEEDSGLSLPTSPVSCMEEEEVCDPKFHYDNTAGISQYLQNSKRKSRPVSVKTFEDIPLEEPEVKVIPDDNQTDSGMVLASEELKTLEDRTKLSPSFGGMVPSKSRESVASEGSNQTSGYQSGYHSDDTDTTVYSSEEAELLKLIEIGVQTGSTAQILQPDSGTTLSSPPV

WNK3 = target: T29, WNK3 (Homo sapiens, UniProt Q9BYP7); test: KINOMEscan; assay type: binding; settings: read-out: Percent Control
T29 construct: purchased Eurofins DiscoverX KINOMEscan (scanMAX 468)

WNK4 = target: T30, WNK4 (Homo sapiens, UniProt Q96J92); test: KINOMEscan; assay type: binding; settings: read-out: Percent Control
T30 construct: purchased Eurofins (KINOMEscan, DiscoverX)

YES = target: T31, YES (Homo sapiens, UniProt P07947); test: KINOMEscan; assay type: binding; settings: read-out: Percent Control
T31 construct: purchased Eurofins (KINOMEscan, DiscoverX)

Hs_HASPIN = target: T32, Hs_HASPIN (Homo sapiens, UniProt Q8TF76); set-up: method as in ref 13 (a number printed in a supplementary file, which may have a reference list of its own: not looked up in the article's list); settings: DB18, cited from earlier work
T32 construct: host or cells: bacteria
T32 sequence (Q8TF76 1-798): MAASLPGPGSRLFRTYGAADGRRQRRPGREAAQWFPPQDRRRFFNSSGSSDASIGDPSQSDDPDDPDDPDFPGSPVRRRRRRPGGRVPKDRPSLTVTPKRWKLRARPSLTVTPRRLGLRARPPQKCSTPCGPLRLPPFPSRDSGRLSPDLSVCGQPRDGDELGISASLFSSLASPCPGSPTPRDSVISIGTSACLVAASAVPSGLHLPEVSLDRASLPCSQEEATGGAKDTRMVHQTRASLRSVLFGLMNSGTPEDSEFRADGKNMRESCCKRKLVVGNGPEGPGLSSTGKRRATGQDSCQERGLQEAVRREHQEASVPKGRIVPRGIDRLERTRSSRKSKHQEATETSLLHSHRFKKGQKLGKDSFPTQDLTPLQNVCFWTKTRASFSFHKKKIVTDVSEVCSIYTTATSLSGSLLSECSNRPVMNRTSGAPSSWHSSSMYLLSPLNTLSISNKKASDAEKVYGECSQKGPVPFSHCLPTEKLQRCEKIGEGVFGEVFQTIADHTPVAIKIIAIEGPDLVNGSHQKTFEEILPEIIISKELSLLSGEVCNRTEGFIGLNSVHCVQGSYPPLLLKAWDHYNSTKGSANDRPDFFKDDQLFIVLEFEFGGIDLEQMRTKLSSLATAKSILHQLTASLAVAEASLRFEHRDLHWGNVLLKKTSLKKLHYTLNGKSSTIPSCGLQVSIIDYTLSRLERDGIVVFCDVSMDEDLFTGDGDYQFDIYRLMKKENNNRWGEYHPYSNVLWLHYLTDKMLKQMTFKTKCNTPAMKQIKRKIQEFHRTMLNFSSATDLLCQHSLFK

T1 sequence (P37023 22-503): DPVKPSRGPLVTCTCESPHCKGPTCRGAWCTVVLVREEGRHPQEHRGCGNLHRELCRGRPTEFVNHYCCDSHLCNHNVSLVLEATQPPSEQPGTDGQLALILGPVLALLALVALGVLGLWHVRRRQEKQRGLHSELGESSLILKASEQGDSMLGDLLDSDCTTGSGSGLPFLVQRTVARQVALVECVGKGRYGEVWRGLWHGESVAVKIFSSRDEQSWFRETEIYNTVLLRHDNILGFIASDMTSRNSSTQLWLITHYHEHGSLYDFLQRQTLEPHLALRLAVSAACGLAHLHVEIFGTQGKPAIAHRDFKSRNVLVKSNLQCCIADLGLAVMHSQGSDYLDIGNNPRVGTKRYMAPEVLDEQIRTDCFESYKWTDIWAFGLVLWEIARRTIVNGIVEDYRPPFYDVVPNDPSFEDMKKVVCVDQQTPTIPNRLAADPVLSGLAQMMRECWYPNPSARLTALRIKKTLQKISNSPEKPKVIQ

In the case of `Cc1ccc(-n2cc(COc3cccc4cnc(Nc5cccc(Cl)c5)nc34)nn2)c([N+](=O)[O-])c1` [DB18], the remaining binding at 1 µM (ACVRL1) was 93%, the remaining binding at 1 µM (ALK(C1156Y)) was 99% and the remaining binding at 1 µM (BMPR1B) was 96%. The remaining binding at 1 µM (CTK) was 96%, the remaining binding at 1 µM (DLK) was 100% and the remaining binding at 1 µM (EGFR(L858R,T790M)) was 100%. For the same molecule, the remaining binding at 1 µM (EPHB3) was 100%, the remaining binding at 1 µM (FLT4) was 100% and the remaining binding at 1 µM (HIPK2) was 33%. The remaining binding at 1 µM (ICK) was 81%, the remaining binding at 1 µM (LZK) was 100% and the remaining binding at 1 µM (MAP3K1) was 98%. The remaining binding at 1 µM (MAP3K15) was 93%, the remaining binding at 1 µM (MEK3) was 98% and the remaining binding at 1 µM (MET(M1250T)) was 88%. It also gave a remaining binding at 1 µM (MLCK) of 89%, a remaining binding at 1 µM (MST3) of 100% and a remaining binding at 1 µM (MYO3B) of 84%. The remaining binding at 1 µM (NEK1) was 100%, the remaining binding at 1 µM (NEK10) was 100% and the remaining binding at 1 µM (NEK3) was 83%. The remaining binding at 1 µM (PIK3CA(E542K)) was 80%, the remaining binding at 1 µM (PIM1) was 100% and the remaining binding at 1 µM (PLK3) was 98%. The remaining binding at 1 µM (PRKX) was 97%, the remaining binding at 1 µM (TGFBR2) was 100% and the remaining binding at 1 µM (TXK) was 96%. It also gave a remaining binding at 1 µM (VEGFR2) of 99%, a remaining binding at 1 µM (WNK3) of 100% and a remaining binding at 1 µM (WNK4) of 100%. The remaining binding at 1 µM (YES) was 100%, the “% of residual activity Hs_HASPIN” value (Hs_HASPIN; 1 µM) was 96% and the “% of residual activity Hs_HASPIN” value (Hs_HASPIN; 10 µM) was 94%.
